Laboratory results: patent US8273787B2, “Activated cytotoxic compounds for attachment to targeting molecules for the treatment of mammalian disease conditions” (Onconova Therapeutics, Inc, priority 2006, dated 2012)

Columns and labels:
CEM/C2 (RESISTANT) = assay: growth inhibition, CEM/C2 (resistant); format: cell-based, Human
Protocol: (§1) Two compounds were selected from our library of cytotoxic molecules for immunoconjugation since they both have IC50 values in the low nanomolar range. Various tumor cell lines (ATCC) were treated for 96 hours in the presence of increasing concentrations of each compound and the total number of viable cells remaining was determined after 96 hours of exposure. The IC50 value was determined to be the amount of drug required to inhibit the growth of each cell line 50% as compared to vehicle treated cells.
(§2) Another extremely important predictive factor is the ability of these compounds to kill cell lines overexpressing multiple drug resistance (MDR) genes. A very high percentage of cancer patient relapses are due to some form of resistance to traditional chemotherapy. Of these patients, the vast majority express one or more of the MDR genes within the ABC transport gene family. Overexpression of these genes increases the efflux of compounds that are recognized by these pumping systems. […] Onconova's benzyl styryl sulfone compounds are not recognized by the MDR-1 gene and therefore provide an advantage over other highly toxic drugs including but not limited to the taxanes, doxorubicin, etoposide, and vinca-alkaloids. […] MES-SA/Dx5, uterine sarcoma, and […], ovarian, are both classical multidrug resistant cell lines that are cross resistant to the taxanes and anthracyclins. Harker, W G, and Sikic, B. I., Multidrug (Pleiotropic) Resistance In Doxorubicin-Selected Variants Of The Human Sarcoma Cell Line MES-SA, Cancer Res. 45(9):4091-6 (1985). MES-SA/Dx5 and Apr. […] Fujimori, A., et al., Mutation At The Catalytic Site Of Topoisomerase I In CEM/C2, A Human Leukemia Cell Line Resistant To Camptothecin, Cancer Res. 55(6): 1339-46 (1995). ON 01500 and ON 013100, for example, are both extremely active against these resistant cell lines.

CEM = assay: 96 hour growth inhibition, CEM; format: cell-based; settings: Homo sapiens, CCRF-CEM; CEM (PARENTAL)
Protocol: as §1, §2

2008/17/4 (RESISTANT) = assay: growth inhibition, 2008/17/4 (resistant); format: cell-based
Protocol: as §1, §2

MES-SA (PARENTAL) = assay: growth inhibition, MES-SA (parental); format: cell-based; settings: Homo sapiens, uterine sarcoma
Protocol: as §1, §2

MES-SA/Dx5 (RESISTANT) = assay: growth inhibition, MES-SA/Dx5 (resistant); format: cell-based, Human
Protocol: as §1, §2

2008 (PARENTAL) = assay: growth inhibition, 2008 (parental); format: cell-based; settings: ovarian
Protocol: as §1, §2

Compound	RSIST-ANCE (CEM/C2 (RESISTANT); CEM/C2 (RESISTANT) versus CEM (PARENTAL))	IC50 (CEM/C2 (RESISTANT); Homo sapiens, CEM/C2 (RESISTANT), non classical multiple drug resistant)	IC50 (CEM)	RSIST-ANCE (2008/17/4 (RESISTANT); 2008/17/4 (RESISTANT) versus 2008 (PARENTAL))	IC50 (2008/17/4 (RESISTANT); 2008/17/4 (RESISTANT), ovarian, multidrug resistant)	fold resistant (2008/17/4 (RESISTANT); 2008/17/4 (printed Apr. 17, 2008) versus parental)	IC50 (MES-SA (PARENTAL))	IC50 (MES-SA/Dx5 (RESISTANT); Homo sapiens, MES-SA/Dx5 (RESISTANT), uterine sarcoma, multidrug resistant)	RSIST-ANCE (MES-SA/Dx5 (RESISTANT); MES-SA/Dx5 (RESISTANT) versus MES-SA (PARENTAL))	fold resistant (MES-SA/Dx5 (RESISTANT); MES-SA/Dx5 versus parental)	IC50 (2008 (PARENTAL))
CC[C@@]1(O)C(=O)OCc2c1cc1n(c2=O)Cc2cc3ccccc3nc2-1 [CAMPTOTHECIN, reference compound]	500	1000 nM	2 nM								
CC(=O)O[C@H]1C(=O)[C@@]2(C)[C@H]([C@H](OC(=O)c3ccccc3)[C@]3(O)C[C@H](OC(=O)[C@H](O)[C@@H](NC(=O)c4ccccc4)c4ccccc4)C(C)=C1C3(C)C)[C@]1(OC(C)=O)CO[C@@H]1C[C@@H]2O [PACLITAXEL, reference compound]				667	2000 nM	667 fold	4 nM	750 nM	188	188 fold	3 nM
